Data: US20040063790A1, “Methods for inhibition of angiogenesis” (The Scripps Research Institute, priority 1996, published 2004)
[ ]: non-standard residue; d: D form.

Columns and labels:
UCLAP-3 tumors = assay: Tumor regression in the CAM assay, UCLAP-3; format: in vivo, chick; conditions: 100 μg intravenously 18 hours post-implantation; FIG. 15
Description: As described in Example 5, in addition to visually assessing the effect of anti-αvβ3 antagonists on growth factor or tumor induced angiogenesis, the effect of the antagonists was also assessed by measuring any changes to the tumor mass following exposure. For this analysis, the tumor-induced angiogenesis CAM assay system was prepared as described in Example 4C. At the end of the 7 day incubation period, the resulting tumors were resected from the CAMs and trimmed free of any residual CAM tissue, washed with 1 ml of phosphate buffer saline and wet weights were determined for each tumor.
To further assess the effects of αvβ3 antagonists on tumor growth and survival, fragments of human melanoma and fragments of carcinomas of the lung, pancreas, and larynx were placed on CAMS of 10-day old embryos as described in Example 3A.
Additional tumor regression assays were performed with the αvβ3-reactive peptide 85189 (SEQ ID NO: 15) against 69601 as a control. The assays were performed as described above with the exception that 100 μg of peptide was intravenously injected into the CAM at 18 hours post-implantation. After 48 hours more, the tumors were then resected and wet weights were obtained.

[1] = tested on: growth factor-induced corneal angiogenesis; assay: In vivo rabbit eye model assay; conditions: both vFGF and VEGF stimulated eyes
Description: The effect of anti-αvβ3 antagonists on growth factor-induced angiogenesis can be observed in naturally transparent structures as exemplified by the cornea of the eye. […] Stimulators of angiogenesis, such as bFGF, when applied to the cornea induce the growth of new blood vessels from the rim of the cornea. Antagonists of angiogenesis, applied to the cornea, inhibit the growth of new blood vessels from the rim of the cornea. Thus, the cornea undergoes angiogenesis through an invasion of endothelial cells from the rim of the cornea into the tough collagen-packed corneal tissue which is easily visible. The rabbit eye model assay therefore provides an in vivo model for the direct observation of stimulation and inhibition of angiogenesis following the implantation of compounds directly into the cornea of the eye.
Each experiment consisted of eight rabbits in which one eye received a pellet comprising 100 nanograms (ng) bFGF and the other eye received a pellet comprising 1 microgram (μg) VEGF. The pellets were inserted into the corneal pocket as described above, and the cytokines subsequently stimulated the growth of new blood vessels into the cornea. […] After 7 days, the cornea were evaluated as described above.

[2] = tested on: tumor-induced angiogenesis; assay: CAM assay, tumor-induced angiogenesis, intravenous application; format: in vivo, chick; conditions: intravenous injection
Description: Angiogenesis was induced in the CAM assay system by direct apposition of a tumor fragment on the CAM. Preparation of the chick embryo CAM was identical to the procedure described above. Instead of a filter paper disk, a 50 milligram (mg) to 55 mg in weight fragment of one of human melanoma tumor M21-L, human lung carcinoma tumor UCLAP-3, human pancreatic carcinoma cell line FG (Cheresh et al., Cell 58:945-953, 1989), or human laryngeal carcinoma cell line HEp3, all of which are αvβ3 negative tumors, was placed on the CAM in an area originally devoid of blood vessels.
The M21-L human melanoma cell line, UCLAP-3 human lung carcinoma cell line, FG pancreatic carcinoma cell line, or HEp3 human laryngeal carcinoma cell line, all αvβ3 negative, were used to grow the solid human tumors on the CAMs of chick embryos. A single cell suspension of 8×10^6 M21-L, UCLAP-3, and FB or 5×10^5 HEp3 cells was first applied to the CAMs in a total volume of 30 μl of sterile HBSS. The windows were sealed with tape and the embryos were incubated for 7 days to allow growth of human tumor lesions. At the end of 7 days, now a 17-day embryo, the tumors were resected from the CAMs and trimmed free of surrounding CAM tissue. […]
The effects of peptide exposure to tumor-induced vasculature in the CAM assay system was also assessed. […]

vascular cell apoptosis = assay: Apoptosis in bFGF-treated CAM, Apop Tag staining; format: in vivo, chick; conditions: 300 μg/ml; treated two days prior; versus PBS or control peptide 69601
Description: CAM assays with growth factor-induced angiogenesis, as described in Example 4A, were also performed with the synthetic peptides of this invention to determine the effect of cyclic peptides on apoptosis. The peptides cyclo-RGDfV (66203) and cyclo-RADfV (69601) were prepared as described in Example 1. The peptide solutions or PBS were injected into the CAM preparation at a concentration of 300 μg/ml. At 24 and 48 hours, the filter paper and surrounding CAM tissue was dissected and stained with the Apop Tag to detect apoptosis.

[3] = tested on: αvβ3-expressing CS-1 cells; assay: Inhibition of cell attachment assay; format: cell-based, hamster
Description: As one means to determine integrin receptor specificity of the antagonists of this invention, inhibition of cell attachment assays were performed as described below.
Briefly, CS-1 hamster melanoma cells lacking expression of αvβ3 and αvβ5 were first transfected with an plasmid for expressing the […] as previously described by Filardo et al., J. Cell Biol., 130:441-450 (1995). Specificity of potential αvβ3 antagonists was determined by the ability to block the binding of αvβ3-expressing CS-1 cells to VN or laminin coated plates. As an example of a typical assay, the wells were first coated with 10 μg/ml substrate overnight. After rinsing and blocking with 1% heat-denatured BSA in PBS at room temperature for 30 minutes, peptide 85189 (SEQ ID NO: 15) over a concentration range of 0.0001 μM to 100 μM, was separately mixed with CS-1 cells for applying to wells with a cell number of 50, 000 cells/well. After a 10-15 minute incubation at 37° C., the solution containing the cells and peptides was discarded. The number of attached cells was then determined following staining with 1% crystal violet. Cell associated crystal violet was eluted by the addition of 100 microliters (μl) of 10% acetic acid. Cell adhesion was quantified by measuring the optical density of the eluted crystal violet at a wave length of 600 nm.

Substance | effect on tumor weight, UCLAP-3 (UCLAP-3 tumors) | corneal blood vessel growth at 7 days [1] | inhibition of tumor-induced blood vessel formation [2] | increase in Apop Tag staining (vascular cell apoptosis) [fold] | inhibition of β3-expressing CS-1 cell adhesion to laminin ([3]; laminin) | inhibition of β3-expressing CS-1 cell adhesion to vitronectin ([3]; vitronectin)
cyclo (RADfV) (cyclo(RAD[dF]V); SMILES CC(C)[C@@H]1NC(=O)[C@@H](Cc2ccccc2)NC(=O)[C@H](CC(=O)O)NC(=O)[C@H](C)NC(=O)[C@H](CCCNC(=N)N)NC1=O) [Peptide 69601, reference compound] | lack of effect | substantial corneal blood vessel growth | – | – | – | –
cyclo (RGDfV) [Peptide 66203] | – | – | formation of blood vessels was inhibited | 3 to 4 | but not laminin | inhibited
